Measurements published in paper PMC6527550, “Discovery of processive catalysis by an exo-hydrolase with a pocket-shaped active site” (Nature Communications, 2019).
Read-outs that look alike come from different tables or passages of the source.

Legend:
native HvExoI = native HvExoI (Hordeum vulgare, UniProt Q9XEI3); assay: Inhibition kinetics (Ki) with 4-nitrophenyl β-D-glucopyranoside substrate; format: biochemical, barley (Hordeum vulgare); details: for ΔG: calculated from Ki; for ΔG / Ki: native HvExoI; for Ki: inhibition kinetics, 4-nitrophenyl β-D-glucopyranoside substrate, 30 °C, pH 5.25
native HvExoI, sequence (Q9XEI3 entry or part of it): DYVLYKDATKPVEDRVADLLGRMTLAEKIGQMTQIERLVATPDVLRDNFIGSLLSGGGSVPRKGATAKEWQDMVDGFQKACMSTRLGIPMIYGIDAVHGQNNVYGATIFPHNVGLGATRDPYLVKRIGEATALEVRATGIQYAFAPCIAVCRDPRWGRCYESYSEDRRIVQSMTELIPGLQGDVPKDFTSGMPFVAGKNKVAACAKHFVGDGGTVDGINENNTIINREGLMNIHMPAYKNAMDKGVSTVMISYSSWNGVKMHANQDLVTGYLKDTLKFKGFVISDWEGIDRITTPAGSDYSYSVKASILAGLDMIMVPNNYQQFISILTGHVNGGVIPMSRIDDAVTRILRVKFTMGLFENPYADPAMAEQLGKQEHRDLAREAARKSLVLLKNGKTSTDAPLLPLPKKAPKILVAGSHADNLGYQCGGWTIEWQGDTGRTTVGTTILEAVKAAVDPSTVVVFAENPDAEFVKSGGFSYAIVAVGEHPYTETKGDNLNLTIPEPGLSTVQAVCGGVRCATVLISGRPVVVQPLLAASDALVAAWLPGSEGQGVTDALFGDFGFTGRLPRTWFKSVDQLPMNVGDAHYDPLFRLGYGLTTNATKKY
Procedure: Ki values of deoxy-glucose and alkyl β-D-glucoside derivatives, and G2SG-OMe with native HvExoI were derived from hydrolytic rates. Enzyme inactivation was monitored at 30 °C by incubating […] of the enzyme in 100 mM sodium acetate buffer, pH 5.25, containing 0.8–6.6 mM 4NPGlc as a substrate, 160 μg/ml BSA, and 3dGlc, 4dGlc, octyl-O-Glc, octyl-S-Glc and G2SG-OMe. Each inhibitor was tested at six concentrations at 0.4–3 times the Ki values in duplicate. We used the v = Vmax S / [KM × (1 + I/Ki) + S] equation to calculate Ki constant; Ki is defined as a dissociation constant of the enzyme-inhibitor complex. The enzyme activity was monitored at 410 nm and Dixon plots were used to determine Ki under the pseudo-first-order rate limiting conditions by a non-linear regression analysis, as described previously.

recombinant HvExoI = recombinant HvExoI (Hordeum vulgare, UniProt Q9XEI3); assay: Steady-state affinity binding by Surface Plasmon Resonance; design: species or system barley (Hordeum vulgare); details: for ΔG: calculated from KD
recombinant HvExoI, sequence (Q9XEI3 entry or part of it): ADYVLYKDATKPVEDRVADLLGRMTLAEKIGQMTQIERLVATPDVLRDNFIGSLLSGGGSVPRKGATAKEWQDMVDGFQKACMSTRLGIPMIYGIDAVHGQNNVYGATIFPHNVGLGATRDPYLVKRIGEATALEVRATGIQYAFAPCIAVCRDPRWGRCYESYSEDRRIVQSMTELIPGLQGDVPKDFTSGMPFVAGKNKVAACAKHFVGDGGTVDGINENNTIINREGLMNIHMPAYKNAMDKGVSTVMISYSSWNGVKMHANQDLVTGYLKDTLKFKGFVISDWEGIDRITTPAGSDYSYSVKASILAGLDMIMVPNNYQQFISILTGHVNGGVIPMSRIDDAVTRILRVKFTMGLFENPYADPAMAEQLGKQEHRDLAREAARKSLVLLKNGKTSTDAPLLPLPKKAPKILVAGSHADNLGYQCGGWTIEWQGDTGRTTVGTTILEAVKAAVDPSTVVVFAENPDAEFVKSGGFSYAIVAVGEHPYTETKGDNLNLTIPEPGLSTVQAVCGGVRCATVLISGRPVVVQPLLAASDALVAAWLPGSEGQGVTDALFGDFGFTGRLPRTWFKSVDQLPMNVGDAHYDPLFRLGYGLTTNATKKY
Procedure: Interaction between recombinant HvExoI and analytes Glc (molecular mass 180.2 g), G6SG-OMe (372.4 g) and PEG (n = 5–10); (380–420 g) were performed using Surface Plasmon Resonance (SPR) at 25 °C using the Biacore X100 V2.0.1 instrument (GE Healthcare, USA) equipped with the plus package. Purified recombinant HvExoI at 99% homogeneity (detected by SDS-PAGE) was covalently attached to a CM5 chip (GE Healthcare) in 10 mM sodium acetate buffer, pH 5.0. The carboxymethyl groups present on the dextran layer of the CM5 chip were activated with 1-ethyl-3-(3-dimethylaminopropyl) carbodiimide hydrochloride (EDC) and N-hydroxysuccinimide (NHS) (GE Healthcare). Any unoccupied reactive sites were blocked by a 7 min injection of 1 M ethanolamine hydrochloride-NaOH, pH 8.5. A ligand density of ~15.000 RU of recombinant HvExoI was achieved. Due to the fast rate constants of interactions, it was impossible to obtain individual rate constants ka and kd. […] For each interaction serial dilutions of analytes covering the 10 · KD − 0.1 · KD concentration ranges were prepared in 10 mM HEPES-NaOH buffer, pH 7.4 with 150 mM NaCl. Samples were injected onto the surface of a chip at a rate of 30 µl/min for 90 s, after which the formed enzyme/analyte complexes could dissociate for 90 s. As all analytes dissociated completely from the surface of the recombinant enzyme immobilised on a chip, no regeneration steps were needed. All responses were double referenced using a blank-immobilised reference surface (NHS + EDC-activated/deactivated) and a series of blank injections conducted to account for the system and injection artefacts. For each analyte at least one concentration was injected in duplicate. Triplicate experiments were performed, and the double-referenced data were globally fitted using a 1:1 equilibrium interaction model and the Biacore T200 v2.0 analysis software (GE Healthcare). Steady-state affinity binding constants KD (Supplementary Fig. 3) were calculated 30 s after the onset of injections using a 5 s window in an average response in the fit.

O=C[C@H](O)C[C@H](O)[C@H](O)CO [3dGlc, 3-deoxy-glucose]
ΔG (native HvExoI): -2.8 kcal/mol | Ki (native HvExoI): 9.8 mM

O=C[C@H](O)[C@@H](O)C[C@H](O)CO [4dGlc, 4-deoxy-glucose]
ΔG (native HvExoI): -2.82 kcal/mol | Ki (native HvExoI): 9.4 mM

CO[C@@H]1O[C@H](CO)[C@@H](O)[C@H](O)[C@H]1S[C@@H]1O[C@H](CO)[C@@H](O)[C@H](O)[C@H]1O [G2SG-OMe, methyl 2-S-β-D-glucopyranosyl-2-thio-β-D-glucopyranoside]
fold weaker binding than G6SG-OMe (native HvExoI; Ki of G2SG-OMe compared with KD of G6SG-OMe): about 320 fold | ΔG (native HvExoI): -3.61 kcal/mol | Ki (native HvExoI): 2.55 mM

CO[C@@H]1O[C@H](CS[C@@H]2O[C@H](CO)[C@@H](O)[C@H](O)[C@H]2O)[C@@H](O)[C@H](O)[C@H]1O [G6SG-OMe, methyl 6-S-β-D-glucopyranosyl-6-thio-β-D-glucopyranoside]
ΔG (recombinant HvExoI; recombinant HvExoI): -6.96 kcal/mol | Kd (recombinant HvExoI; steady-state affinity, Surface Plasmon Resonance, recombinant HvExoI, 25 °C, read-out: KD): 0.008 mM

OC[C@H]1OC(O)[C@H](O)[C@@H](O)[C@@H]1O (stereo partly drawn) [Glc]
Kd (recombinant HvExoI): 0.16 mM | ΔG (recombinant HvExoI; recombinant HvExoI): -5.19 kcal/mol

CCCCCCCCO[C@@H]1O[C@H](CO)[C@@H](O)[C@H](O)[C@H]1O [Octyl-O-Glc, n-octyl β-D-glucopyranoside]
ΔG (native HvExoI): -5.4 kcal/mol | Ki (native HvExoI): 0.13 mM

CCCCCCCCS[C@@H]1O[C@H](CO)[C@@H](O)[C@H](O)[C@H]1O [Octyl-S-Glc, n-octyl 1-thio-β-D-glucopyranoside]
ΔG (native HvExoI): -4.11 kcal/mol | Ki (native HvExoI): 1.1 mM
